# Where “and” joins values, the source holds several entries; their conditions need not be identical. Identical values can stand only once.
# Tests used:
# Type in all cases: biochemical
# E. coli gyrase GyrA^V70A = target: T1, E. coli gyrase GyrA^V70A (Escherichia coli, UniProt P0AES4+P0AES6, V70A); test: DNA gyrase cleavage assay (CC50, % cleaved DNA); conditions: for % maximal cleavage: GyrAV70A, average of 3 independent assays; for EC50: GyrA^V70A, mean ± s.d. of triplicate
# T1 construct: alternative cryo-EM approach involving full-length E. coli gyrase; 10-His (cleaved yes); Twin-Strep (cleaved yes); made in house
# Description: (§1) For DNA gyrase supercoiling assays to characterize gyrase mutants, 15 µl reactions were set up containing 250 ng of relaxed DNA, E. coli gyrase supercoiling buffer (35 mM Tris–Cl pH 7.5, 24 mM KCl, 4 mM MgCl2, 2 mM DTT, 1.8 mM spermidine, 1 mM ATP, 6.0% (w/v) glycerol, and 0.1 mg ml^−1 BSA), gyrase subunits and inhibitors. Concentrations of enzyme and inhibitor are stated in the figure legends. Inhibitors were diluted in the following way to reduce the chance of precipitation: stock compound in 100% DMSO was diluted to 5 mM in 100% DMSO. This compound solution was diluted to 1 mM by stepwise addition of 1 µl of 50% DMSO with thorough mixing via pipetting after each addition. All subsequent dilutions up to 100 µM were performed in the same way using H2O. After this point, compounds were stable and could be diluted in the normal way. Reactions were incubated at 37 °C for 30 min before stopping with 15 µl chloroform:isoamyl alcohol (24:1 v/v) and 15 µl of STEB (40% (w/v) sucrose, 100 mM Tris–Cl pH 8, 10 mM EDTA, 0.5 mg ml^−1 bromophenol blue).
# (§2) Cleavage assays were set up in the same way as supercoiling assays with some modifications. The concentration of enzyme was increased 4-fold relative to the supercoiling assay and reactions were incubated for 1 h before addition of 0.2% SDS and proteinase K (0.2 mg ml^−1) and further incubation at 37 °C for 30 min to trap cleavage complexes. Reactions were stopped in the same way as supercoiling assays.
# (§3) Results were visualized by agarose gel electrophoresis: 1% agarose Tris-acetate-EDTA (TAE) gels were run without ethidium bromide (supercoiling) or with 10 µg ml^−1 ethidium bromide (cleavage) at 8 V cm^−1.
# (§4) DNA cleavage gels were analysed using densitometry (ImageJ). Experiments were carried out in triplicate and expressed as mean ± s.d. Curves were fitted using OriginPro 2021 (Origin Lab) according to a modified Hill equation:1 y=cI+(cF−cI)[…]/(k^n+x^n) where y is the percentage of cleaved DNA, cI is the initial cleavage, cF is the final cleavage, k is the CC50 (the concentration of inhibitor that results in cleavage of 50% of DNA), n is a slope factor and x is the inhibitor concentration.
# [1] = target: T2, E. coli gyrase GyrB^K447W (Escherichia coli, UniProt P0AES4+P0AES6, K447W); test: DNA gyrase cleavage assay (CC50, % cleaved DNA); conditions: for % maximal cleavage: GyrBK447W, average of 3 independent assays
# T2 construct: alternative cryo-EM approach involving full-length E. coli gyrase; 10-His (cleaved yes); Twin-Strep (cleaved yes); made in house
# Description: as §1, §2, §3, §4
# E. coli gyrase GyrA^A67Q = target: T3, E. coli gyrase GyrA^A67Q (Escherichia coli, UniProt P0AES4+P0AES6, A67Q); test: DNA gyrase cleavage assay (CC50, % cleaved DNA)
# T3 construct: alternative cryo-EM approach involving full-length E. coli gyrase; 10-His (cleaved yes); Twin-Strep (cleaved yes); made in house
# Description: as §1, §2, §3, §4
# E. coli gyrase GyrA^S83L = target: T4, E. coli gyrase GyrA^S83L (Escherichia coli, UniProt P0AES4+P0AES6, S83L); test: DNA gyrase cleavage assay (CC50, % cleaved DNA); conditions: for % maximal cleavage: GyrAS83L, average of 3 independent assays; for EC50: GyrA^S83L, mean ± s.d. of triplicate
# T4 construct: alternative cryo-EM approach involving full-length E. coli gyrase; 10-His (cleaved yes); Twin-Strep (cleaved yes); made in house
# Description: as §1, §2, §3, §4
# WT E. coli gyrase = target: T5, WT E. coli gyrase (Escherichia coli, UniProt P0AES4+P0AES6); test: biochemical; conditions: for % cleaved DNA Average: WT Gyrase; for % maximal cleavage: GyraseWT, average of 3 independent assays
# T5 construct: alternative cryo-EM approach involving full-length E. coli gyrase; 10-His (cleaved yes); Twin-Strep (cleaved yes); made in house
# Description: as §1, §2, §3, §4
# [2] = target: T6, E. coli gyrase GyrA^M120A (Escherichia coli, UniProt P0AES4+P0AES6, M120A); test: DNA gyrase cleavage assay (CC50, % cleaved DNA)
# T6 construct: alternative cryo-EM approach involving full-length E. coli gyrase; 10-His (cleaved yes); Twin-Strep (cleaved yes); made in house
# Description: as §1, §2, §3, §4
structure (smiles),measurement,setting,value
COc1c(NC(=O)c2ccc(NC(=O)c3ccc(NC(=O)[C@H](Cc4c[nH]nn4)NC(=O)c4ccc(NC(=O)c5ccc6nc(C)ccc6c5)cc4)cn3)c(OC)c2O)ccc(C(=O)O)c1O [Albi-3],% maximal cleavage,E. coli gyrase GyrA^V70A,63±2%
same,EC50,E. coli gyrase GyrA^V70A,36 ± 8.6 nM
same,% maximal cleavage,[1],69±2% and 69%
same,% maximal cleavage,"E. coli gyrase GyrA^A67Q; GyrAA67Q, average of 3 independent assays",78±6%
same,EC50,"E. coli gyrase GyrA^A67Q; GyrA^A67Q, mean ± s.d. of triplicate",328 ± 19 nM
same,% maximal cleavage,E. coli gyrase GyrA^S83L,85±7%
same,EC50,E. coli gyrase GyrA^S83L,16 ± 4 nM
same,% cleaved DNA Average,WT E. coli gyrase; Albi-3 0.001 µM,5.372%
same,% cleaved DNA Average,WT E. coli gyrase; Albi-3 0.005 µM,11.5375%
same,% cleaved DNA Average,WT E. coli gyrase; Albi-3 0.01 µM,23.6152%
same,% cleaved DNA Average,WT E. coli gyrase; Albi-3 0.05 µM,37.3347%
same,% cleaved DNA Average,WT E. coli gyrase; Albi-3 0.1 µM,57.4394%
same,% cleaved DNA Average,WT E. coli gyrase; Albi-3 0.5 µM,62.8438%
same,% cleaved DNA Average,WT E. coli gyrase; Albi-3 1 µM,66.0682%
same,% cleaved DNA Average,WT E. coli gyrase; Albi-3 5 µM,61.2004%
same,% cleaved DNA Average,WT E. coli gyrase; Albi-3 10 µM,61.7202%
same,% maximal cleavage,WT E. coli gyrase,66±4%
same,EC50,"WT E. coli gyrase; Gyrase^WT, mean ± s.d. of triplicate, read-out: CC50 (the source's name)",25 ± 5.3 nM
COc1c(NC(=O)c2ccc(NC(=O)c3ccc(NC(=O)[C@H](Cc4c[nH]nn4)NC(=O)c4ccc(NC(=O)c5ccc6cc(O)ccc6c5)cc4)cn3)c(OCCN)c2O)ccc(C(=O)O)c1O [Albi-2],% maximal cleavage,E. coli gyrase GyrA^V70A,58±2%
same,EC50,E. coli gyrase GyrA^V70A,189 ± 49 nM
same,% maximal cleavage,[1],59±6%
same,EC50,"[1]; GyrB^K447W, mean ± s.d. of triplicate",251 ± 40 nM
same,% maximal cleavage,E. coli gyrase GyrA^S83L,72±7%
same,EC50,E. coli gyrase GyrA^S83L,208 ± 34 nM
same,% maximal cleavage,"[2]; GyrAM120A, average of 3 independent assays",59±17%
same,EC50,"[2]; GyrA^M120A, mean ± s.d. of triplicate",160 ± 15 nM
same,% maximal cleavage,WT E. coli gyrase,78±2%

# — article PMC9886550, “Molecular mechanism of topoisomerase poisoning by the peptide antibiotic albicidin” (Nature Catalysis, 2023)
